# Source: patent publication US6287794A, “Factor Vlla inhibitors” (Aventis Pharma Deutschland GmbH, priority 1998, dated 2001)
# Starred links: 1 amine or outer side, 2 acyl side, 3 side chain; linkers in the order of their positions; H or OH if unused. Non-standard residues stand in square brackets, D forms with d. Residues, ends and D or L forms follow the SMILES beside them. *: point of attachment. Phe(4-NO2) = N[C@@H](Cc1ccc([N+](=O)[O-])cc1)C(=O)O; Phe(4-guanidino) = N=C(N)Nc1ccc(C[C@H](N)C(=O)O)cc1; Phe(4-amidino) = N=C(N)c1ccc(C[C@H](N)C(=O)O)cc1; Orn(acetimidoyl) = CC(=N)NCCC[C@H](N)C(=O)O; Cha = N[C@@H](CC1CCCCC1)C(=O)O; Phg = N[C@H](C(=O)O)c1ccccc1; CO = O=C([*:1])[*:2]; Alloc = C=CCOC(=O)*; Bn = c1ccc(C*)cc1; NHAllyl = C=CCN*
# Target: T1, human factor VIIa and TF (Homo sapiens, UniProt P08709)
# T1 construct: human factor VIIa and TF
# T1 sequence (P08709 213-466 limits assumed): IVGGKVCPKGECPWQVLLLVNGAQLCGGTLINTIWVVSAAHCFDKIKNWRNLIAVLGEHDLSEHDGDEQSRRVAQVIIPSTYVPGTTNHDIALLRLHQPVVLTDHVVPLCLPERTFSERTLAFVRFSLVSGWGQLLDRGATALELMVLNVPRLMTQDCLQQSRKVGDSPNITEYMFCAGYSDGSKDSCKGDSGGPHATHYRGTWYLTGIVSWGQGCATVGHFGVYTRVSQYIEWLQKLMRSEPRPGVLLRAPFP
# T1 sequence (P08709 61-212 limits assumed): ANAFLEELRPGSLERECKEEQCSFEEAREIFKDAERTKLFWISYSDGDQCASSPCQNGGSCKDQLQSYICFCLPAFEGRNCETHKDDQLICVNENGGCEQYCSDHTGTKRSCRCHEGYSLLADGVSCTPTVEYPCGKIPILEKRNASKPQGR
# T1 sequence (P13726 33-295 partner): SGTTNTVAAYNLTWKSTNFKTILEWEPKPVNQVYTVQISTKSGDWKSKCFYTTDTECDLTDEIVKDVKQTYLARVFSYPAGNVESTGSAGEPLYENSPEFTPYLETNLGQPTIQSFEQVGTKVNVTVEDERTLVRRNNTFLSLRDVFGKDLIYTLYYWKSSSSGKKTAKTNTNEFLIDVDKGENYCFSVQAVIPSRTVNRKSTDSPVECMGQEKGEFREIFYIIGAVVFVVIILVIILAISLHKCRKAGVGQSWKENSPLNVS
# Assay: Determination of Ki for FVIIa inhibition (chromogenic assay, substrate S-2288)
# Type: biochemical
# Details: human factor VIIa 5 nM and TF 10 nM, S-2288 500 μM, 25° C., 15 minute preincubation, pH 8.15; read-out: Factor VIIa inhibitory activities Ki
# Protocol: The inhibitory activity (Ki) of each compound towards […] activity was determined using a chromogenic assay essentially as described previously. J. A. Ostrem, F. Al-Obeidi, P. Safar, A. Safarova, S. K. Stringer, M. Patek, M. T. Cross, J. Spoonamore, J. C. LoCascio, P. Kasireddy, D. S. Thorpe, N. Sepetov, M. Lebi, P. Wildgoose, P. Strop, "Discovery of a novel, potent, and specific family of factor Xa inhibitors via combinatorial chemistry". Biochemistry 37 (1998) 1053-1059. Kinetic assays were conducted at 25° C. in half-area microtiter plates (Costar Corp., Cambridge, Mass.) using a kinetic plate reader (Molecular Devices Spectramax 250). A typical assay consisted of 25 μl of human factor VIIa and TF (5 nM and 10 nM, respective final concentration) combined with 40 μl of inhibitor dilutions in 10% DMSO/TBS-PEG buffer (50 mM Tris, 15 mM NaCl, 5 mM CaCl2; 0.05% PEG 8k, pH 8.15). Following a 15 minute preincubation period, the assay was initiated by the addition of 35 μl of the chromogenic substrate S-2288 (D-Ile-Pro-Arg-pNA, Pharmacia Hepar Inc, 500 μM final concentration.). The apparent inhibition constants were calculated from the slope of the progress curves during the linear part of the time course, typically between 1 and 5 min following addition of substrate to the assay. The true Ki was subsequently determined for each compound by correcting for substrate concentration (S) and the Km using the formula Ki=Ki app/(1+(S)/Km). I. H. Segal, Enzyme Kinetics, pp 100-125 (John Wiley & Sons, N.Y., 1975).
row,SMILES,Ki
1,C=CCOC(=O)N[C@@H](Cc1ccc(C(=N)N)cc1)C(=O)N[C@@H](CCC(=O)O)C(=O)N[C@@H](CCCN)C(N)=O [Alloc--pAph--Glu--Orn--NH2],6200 nM
2,C=CCOC(=O)N[C@@H](Cc1ccc(C(=N)N)cc1)C(=O)N[C@@H](CCC(=O)O)C(=O)N[C@@H](CCCNC(C)=N)C(=O)N[C@@H](CC1CCCCC1)C(N)=O [Alloc--pAph--Glu--Orn[--C(=NH)--CH3]--Cha--NH2] (Alloc-[Phe(4-amidino)]E[Orn(acetimidoyl)][Cha]-NH2),130 nM
3,C=CCOC(=O)N[C@@H](Cc1ccc(C(=N)N)cc1)C(=O)N[C@@H](CCC(=O)O)C(=O)N[C@@H](CNC(C)=N)C(=O)N[C@@H](CC1CCCCC1)C(N)=O [Alloc-pAph-Glu-Dap[--C(=NH)--CH3 ]-Cha-NH2],110 nM
4,C=CCOC(=O)N[C@@H](Cc1ccc(C(=N)N)cc1)C(=O)N[C@@H](CCC(=O)O)C(=O)N[C@@H](Cc1ccc(NC(=N)N)cc1)C(=O)N[C@@H](CC1CCCCC1)C(N)=O [Alloc-pAph-Glu-Phe(4-guanidino)-Cha-NH2] (Alloc-[Phe(4-amidino)]E[Phe(4-guanidino)][Cha]-NH2),120 nM
5,C=CCOC(=O)N[C@@H](Cc1ccc(C(=N)N)cc1)C(=O)N[C@@H](CCC(=O)O)C(=O)N[C@H](C(=O)NCCC(c1ccccc1)c1ccccc1)[C@@H](C)OCc1ccccc1 [Alloc-pAph-Glu-Thr(Bzl)-NH--CH2 --CH2 --CH(Ph)2],170 nM

# Continued by falling Ki, values first:
row,Ki,SMILES
1,110 nM,C=CCOC(=O)N[C@@H](Cc1ccc(C(=N)N)cc1)C(=O)N[C@@H](CCC(=O)O)C(=O)N[C@@H](CCSC)C(=O)N[C@@H](CC1CCCCC1)C(N)=O [Alloc--pAph--Glu--Met--Cha--NH2] (Alloc-[Phe(4-amidino)]EM[Cha]-NH2)
2,46 nM,C=CCOC(=O)N[C@@H](Cc1ccc(C(=N)N)cc1)C(=O)N[C@@H](CCC(=O)O)C(=O)N[C@@H](Cc1ccc([N+](=O)[O-])cc1)C(=O)N[C@@H](CC1CCCCC1)C(N)=O [Alloc--pAph--Glu--Phe(4-NO2)--Cha--NH2] (Alloc-[Phe(4-amidino)]E[Phe(4-NO2)][Cha]-NH2)
3,42 nM,C=CCNC(=O)N[C@@H](Cc1ccc(C(=N)N)cc1)C(=O)N[C@@H](CCC(=O)O)C(=O)N[C@@H](CCCNC(=N)N)C(=O)N[C@@H](CC1CCCCC1)C(N)=O [allyl-NH--C(O)-pAph-Glu-Arg-Cha-NH2] ({NHAllyl-CO}-[Phe(4-amidino)]ER[Cha]-NH2)
4,30 nM,C=CCOC(=O)N[C@@H](Cc1ccc(C(=N)N)cc1)C(=O)N[C@@H](CCC(=O)O)C(=O)N[C@@H](CC(=N)N)C(=O)N[C@@H](CC1CCCCC1)C(N)=O [Alloc-pAph-Glu-Ala[3-C(=NH)--NH2 ]-Cha-NH2]
5,19 nM,C=CCOC(=O)N[C@@H](Cc1ccc(C(=N)N)cc1)C(=O)N[C@@H](CCC(=O)O)C(=O)N[C@H](C(=O)N[C@@H](CC1CCCCC1)C(N)=O)[C@@H](C)OCc1ccccc1 [Alloc--pAph--Glu--Thr(Bzl)--Cha--NH2] (Alloc-[Phe(4-amidino)]ET(Bn)[Cha]-NH2)
6,17 nM,C=CCOC(=O)N[C@@H](Cc1ccc(C(=N)N)cc1)C(=O)N[C@@H](CCC(=O)O)C(=O)N[C@H](C(=O)N[C@@H](CC1CCCCC1)C(N)=O)c1ccccc1 [Alloc--pAph--Glu--Phg--Cha--NH2] (Alloc-[Phe(4-amidino)]E[Phg][Cha]-NH2)
7,17 nM,C=CCOC(=O)N[C@@H](Cc1ccc(C(=N)N)cc1)C(=O)N[C@@H](CCC(=O)O)C(=O)N[C@@H](Cc1c[nH]c2ccccc12)C(=O)N[C@@H](CC1CCCCC1)C(N)=O [Alloc--pAph--Glu--Trp--Cha--NH2] (Alloc-[Phe(4-amidino)]EW[Cha]-NH2)
